Laboratory results taken from patent US20240317706A1, “COMPOUNDS THAT MEDIATE PROTEIN DEGRADATION AND METHODS OF USE THEREOF” (Monte Rosa Therapeutics, Inc., priority 2021, published 2024).

What was measured:
CDK2 = target: T1, CDK2 (Homo sapiens, UniProt P24941); assay: NanoBiT assay (CDK2 degradation); assay type: cell-based; conditions: HEK293, HEK293 clonal line with CRISPR KI HiBiT tag on CDK2, Endurazine live cell substrate, 24 hours
T1 construct: HEK293 clonal lines with CRISPR KI HiBiT tag on CDK2 proteins; host or cells: HEK293 clonal line, CRISPR knock-in HiBiT-CDK2, stably expressing LgBiT
Protocol: HEK293 clonal lines with CRISPR KI HiBiT tag on either CDK2 proteins and stably expressing LgBiT protein were obtained from Promega (Madison, WI). Cells were plated at 5000 cells per well using Multiflo (BioTek) in 384-well white solid bottom plates (Corning, 3570BC) in 25 ul volume in DMEM media (DMEM, high glucose, HEPES, no phenol red (ThermoFisher Scientific, 21063029)) containing 10% FBS (Corning, 35-075-CV), 1% Penicillin/Streptomycin ((ThermoFisher Scientific, 15140-122), and 1% Endurazine (Nano-Glo Endurazine Live Cell Substrate (Promega, N2571)). Cells were incubated for 16 hours at 37 C, 5% CO2. 75 nL of a compound at 30 μM were dosed into the plate using an Echo® 650 liquid handler (Labcyte). Cells were incubated at 37° C., 5% CO2 for 24 hours and then signal was read on a Pherastar FSX using “LUM plus” optic module.
Analysis was performed in Scinamic (Scinamic, Cambridge, MA). Luminescence response (R) was calculated by the formula: response=100*(S−N)/(P−N) where S is the signal of the well, N and P the mean negative and positive control values respectively of the same plate. The luminescence response was then fitted in Scinamic using a 3-parameter agonist logistic fit (hillslope=1, EC50>0, top/bottom unconstrained).

CRBN-DDB1 = CRBN-DDB1 (Homo sapiens, UniProt Q96SW2); assay: Compound binding to CRBN by HTRF assay; conditions: CRBN-DDB1 2.5 nM, Cy5-Thalidomide 100 nM, 30 min; Ki from geometric mean IC50 by Cheng-Prustoff transformation
Sequence of CRBN-DDB1 (Q96SW2 whole entry): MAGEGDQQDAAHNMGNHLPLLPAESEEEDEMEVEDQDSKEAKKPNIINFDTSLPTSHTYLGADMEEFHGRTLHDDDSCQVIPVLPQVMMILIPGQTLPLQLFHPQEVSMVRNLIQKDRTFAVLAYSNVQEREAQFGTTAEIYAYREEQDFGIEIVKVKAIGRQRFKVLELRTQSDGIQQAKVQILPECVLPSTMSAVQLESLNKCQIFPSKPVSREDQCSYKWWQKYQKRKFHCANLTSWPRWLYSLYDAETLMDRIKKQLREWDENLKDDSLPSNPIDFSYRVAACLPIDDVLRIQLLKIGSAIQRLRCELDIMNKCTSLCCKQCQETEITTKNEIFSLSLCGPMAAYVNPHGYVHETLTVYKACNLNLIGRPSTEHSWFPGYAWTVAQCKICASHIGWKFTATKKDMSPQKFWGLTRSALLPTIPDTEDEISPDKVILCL
Sequence of CRBN-DDB1 (Q16531 whole entry partner): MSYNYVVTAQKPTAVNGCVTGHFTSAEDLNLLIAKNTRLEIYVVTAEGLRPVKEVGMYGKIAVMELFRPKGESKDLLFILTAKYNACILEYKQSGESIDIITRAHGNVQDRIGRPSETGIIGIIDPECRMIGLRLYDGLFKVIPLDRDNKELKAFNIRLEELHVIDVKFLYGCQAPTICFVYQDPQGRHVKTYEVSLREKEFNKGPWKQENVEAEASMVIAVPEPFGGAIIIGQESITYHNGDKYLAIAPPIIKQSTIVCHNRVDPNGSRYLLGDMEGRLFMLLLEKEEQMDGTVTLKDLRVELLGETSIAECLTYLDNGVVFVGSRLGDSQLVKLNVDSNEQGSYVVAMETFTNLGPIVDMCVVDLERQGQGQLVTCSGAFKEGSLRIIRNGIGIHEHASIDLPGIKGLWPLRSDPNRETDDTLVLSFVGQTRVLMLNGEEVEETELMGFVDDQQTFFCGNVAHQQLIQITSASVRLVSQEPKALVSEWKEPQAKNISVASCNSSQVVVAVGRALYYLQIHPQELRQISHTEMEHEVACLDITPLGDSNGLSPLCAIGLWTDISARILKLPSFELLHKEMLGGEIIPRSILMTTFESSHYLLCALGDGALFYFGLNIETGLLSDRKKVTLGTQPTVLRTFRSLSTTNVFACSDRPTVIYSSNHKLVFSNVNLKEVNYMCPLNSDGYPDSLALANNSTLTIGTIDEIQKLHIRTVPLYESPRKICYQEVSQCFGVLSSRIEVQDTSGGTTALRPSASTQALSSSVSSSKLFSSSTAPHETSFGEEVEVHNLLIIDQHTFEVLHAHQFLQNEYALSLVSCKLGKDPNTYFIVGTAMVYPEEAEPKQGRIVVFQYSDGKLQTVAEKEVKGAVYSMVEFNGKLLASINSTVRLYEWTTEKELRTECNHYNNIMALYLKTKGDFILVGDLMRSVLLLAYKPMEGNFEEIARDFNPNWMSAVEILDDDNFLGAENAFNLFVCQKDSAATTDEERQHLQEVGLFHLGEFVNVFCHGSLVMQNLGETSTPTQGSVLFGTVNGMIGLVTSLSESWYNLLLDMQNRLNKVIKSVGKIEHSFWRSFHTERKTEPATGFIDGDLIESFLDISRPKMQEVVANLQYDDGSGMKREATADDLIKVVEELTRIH
Protocol: Compound activity was monitored in a Homogenous Time-Resolved Fluorescence (HTRF) assay using 1-[5-({2-[2-(2-{[2-(2,6-dioxopiperidin-3-yl)-1,3-dioxo-2,3-dihydro-1H-isoindol-4-yl]oxy}acetamido)ethoxy]ethyl}carbamoyl)pentyl]-3,3-dimethyl-2-[(1E,3E)-5-[(2E)-1,3,3-trimethyl-5-sulfo-2,3-dihydro-1H-indol-2-ylidene]penta-1,3-dien-1-yl]-3H-indol-1-ium-5-sulfonate as a fluorescent probe. Biochemical assays were conducted in Greiner white 384 well HiBase plates (Cat. No 784075-25) in 10 μL total volume. A one pot detection solution of CRBN-DDB1 (2.5 nM), Anti-His Terbium Cryptate Gold (1×, PerkinElmer Cat. #: 61HI2TLB), and Cy5-Thalidomide (100 nM, Tenova Cat.: T52461) was prepared in 20 mM HEPES, 20 mM NaCl, 0.2 mM TCEP, 0.2 mM EDTA, and 0.005% Tween20 was dispensed to each assay plate. Compounds were stored in dry, ambient temperatures at 10 mM. A 10-point, 1:3 dilution series was prepared from 10 mM stock concentrations in Echo-compatible LDV plates. 10 nL of each compound dilution series was dispensed into assays wells using an Echo 650 (Labcyte inc. USA). 10 nL of 10 mM Lenalidomide was transferred into the active-control wells for the assay and 10 nL of DMSO was transferred into the neutral-control wells. The assay was then allowed to incubate for 30 min at ambient temperature after transferring compound. Plate measurements were taken on a Pherastar FSX (BMG Labtech, Germany) using the HTRF Red filter (Ex. 337 nm, em1: 620 nm, em2: 665 nm) (Flashes: 50, Integration time: 60-400 us, Z-height: 10 mm, Ratio-multiplier: 10,000). The HTRF signal was then subsequently normalized to the neutral and active controls. Analysis and IC50 values were derived using KNIME analytics (KNIME Zurich) transformation and fitting within Collaborative Drug Discovery (Collaborative Drug Discovery USA). Ki was derived from the geometric mean of the IC50 values using the Cheng-Prustoff transformation.

O=C1CCC(N2Cc3ccc(CNC(=S)OCC4CC5(CCC5)C4)cc3C2=O)C(=O)N1 (stereo not drawn) [Compound 111, O-(spiro[3.3]heptan-2-ylmethyl) ((2-(2,6-dioxopiperidin-3-yl)-3-oxoisoindolin-5-yl)methyl)carbamothioate]
Dmax (CDK2): 10 to 50% | Ki (CRBN-DDB1): ≤ 0.1 µM

CN(C)C(=O)N1CC(OC(=O)NCc2ccc3c(c2)C(=O)N(C2CCC(=O)NC2=O)C3)C1 (stereo not drawn) [Compound 112, 1-(dimethylcarbamoyl)azetidin-3-yl ((2-(2,6-dioxopiperidin-3-yl)-3-oxoisoindolin-5-yl)methyl)carbamate]
Dmax (CDK2): 10 to 50% | Ki (CRBN-DDB1): 0.1 to 1 µM

CC(OC(=O)NCc1ccc2c(c1)C(=O)N(C1CCC(=O)NC1=O)C2)C1CC2(CCC2)C1 (stereo not drawn) [Compound 113, 1-(spiro[3.3]heptan-2-yl)ethyl ((2-(2,6-dioxopiperidin-3-yl)-3-oxoisoindolin-5-yl)methyl)carbamate]
Dmax (CDK2): 10 to 50% | Ki (CRBN-DDB1): 0.1 to 1 µM

CC(NC(=O)OCC1CC2(CCC2)C1)c1ccc2c(c1)C(=O)N(C1CCC(=O)NC1=O)C2 (stereo not drawn) [Compound 114]
Dmax (CDK2): 10 to 50% | Ki (CRBN-DDB1): 0.1 to 1 µM

O=C1CCC(N2Cc3ccc(CNC(=O)OCC4CC5(CCCC5)C4)cc3C2=O)C(=O)N1 (stereo not drawn) [Compound 115, spiro[3.4]octan-2-ylmethyl ((2-(2,6-dioxopiperidin-3-yl)-3-oxoisoindolin-5-yl)methyl)carbamate]
Dmax (CDK2): 50 to 80% | Ki (CRBN-DDB1): 0.1 to 1 µM

CC(C)[C@@H]1C[C@H]1COC(=O)NCc1ccc2c(c1)C(=O)N(C1CCC(=O)NC1=O)C2 (stereo partly drawn) [Compound 116, ((1R,2S)-2-isopropylcyclopropyl)methyl ((2-(2,6-dioxopiperidin-3-yl)-3-oxoisoindolin-5-yl)methyl)carbamate]
Dmax (CDK2): 10 to 50% | Ki (CRBN-DDB1): 0.1 to 1 µM

O=C1CCC(N2C(=O)c3ccc(CNC(=O)OCC4CC5(CCC5)C4)cc3C2=O)C(=O)N1 (stereo not drawn) [Compound 117, spiro[3.3]heptan-2-ylmethyl ((2-(2,6-dioxopiperidin-3-yl)-1,3-dioxoisoindolin-5-yl)methyl)carbamate]
Dmax (CDK2): > 80% | Ki (CRBN-DDB1): 0.1 to 1 µM

O=C1CCC(N2Cc3ccc(C4(NC(=O)OCC5CC6(CCC6)C5)CC4)cc3C2=O)C(=O)N1 (stereo not drawn) [Compound 118, spiro[3.3]heptan-2-ylmethyl (1-(2-(2,6-dioxopiperidin-3-yl)-3-oxoisoindolin-5-yl)cyclopropyl)carbamate]
Dmax (CDK2): 50 to 80% | Ki (CRBN-DDB1): 0.1 to 1 µM

C[C@H]1C[C@H](COC(=O)NCc2ccc3c(c2)C(=O)N(C2CCC(=O)NC2=O)C3)C1 (stereo partly drawn) [Compound 119]
Dmax (CDK2): 10 to 50% | Ki (CRBN-DDB1): 0.1 to 1 µM

C[C@H]1C[C@@H](COC(=O)NCc2ccc3c(c2)C(=O)N(C2CCC(=O)NC2=O)C3)C1 (stereo partly drawn) [Compound 120, ((1s,3s)-3-methylcyclobutyl)methyl ((2-(2,6-dioxopiperidin-3-yl)-3-oxoisoindolin-5-yl)methyl)carbamate]
Dmax (CDK2): 10 to 50% | Ki (CRBN-DDB1): 0.1 to 1 µM

O=C1CCC(N2Cc3ccc(CNC(=O)OC4CC5(CCCC5)C4)cc3C2=O)C(=O)N1 (stereo not drawn) [Compound 121, spiro[3.4]octan-2-yl ((2-(2,6-dioxopiperidin-3-yl)-3-oxoisoindolin-5-yl)methyl)carbamate]
Dmax (CDK2): 10 to 50% | Ki (CRBN-DDB1): 0.1 to 1 µM

O=C1CCC(N2Cc3c(F)cc(CNC(=O)OCC4CC5(CCC5)C4)cc3C2=O)C(=O)N1 (stereo not drawn) [Compound 122, spiro[3.3]heptan-2-ylmethyl ((2-(2,6-dioxopiperidin-3-yl)-7-fluoro-3-oxoisoindolin-5-yl)methyl)carbamate]
Dmax (CDK2): 50 to 80% | Ki (CRBN-DDB1): 0.1 to 1 µM

O=C1CCC(N2Cc3cc(F)c(CNC(=O)OCC4CC5(CCC5)C4)cc3C2=O)C(=O)N1 (stereo not drawn) [Compound 123, spiro[3.3]heptan-2-ylmethyl ((2-(2,6-dioxopiperidin-3-yl)-6-fluoro-3-oxoisoindolin-5-yl)methyl)carbamate]
Dmax (CDK2): 10 to 50% | Ki (CRBN-DDB1): 0.1 to 1 µM

O=C1CCC(N2Cc3ccc(CNC(=O)OCCC4CC5(CCC5)C4)cc3C2=O)C(=O)N1 (stereo not drawn) [Compound 124, 2-(spiro[3.3]heptan-2-yl)ethyl ((2-(2,6-dioxopiperidin-3-yl)-3-oxoisoindolin-5-yl)methyl)carbamate]
Dmax (CDK2): 10 to 50% | Ki (CRBN-DDB1): 0.1 to 1 µM

O=C1CCC(N2Cc3ccc(CNC(=O)OCC4CC5(C4)CC(F)(F)C5)cc3C2=O)C(=O)N1 (stereo not drawn) [Compound 125, (6,6-difluorospiro[3.3]heptan-2-yl)methyl ((2-(2,6-dioxopiperidin-3-yl)-3-oxoisoindolin-5-yl)methyl)carbamate]
Dmax (CDK2): 10 to 50% | Ki (CRBN-DDB1): 0.1 to 1 µM

O=C1CCC(N2Cc3ccc(CNC(=O)OCC4CC5(CC5)C4)cc3C2=O)C(=O)N1 (stereo not drawn) [Compound 126, spiro[2.3]hexan-5-ylmethyl ((2-(2,6-dioxopiperidin-3-yl)-3-oxoisoindolin-5-yl)methyl)carbamate]
Dmax (CDK2): 10 to 50% | Ki (CRBN-DDB1): 0.1 to 1 µM

O=C1CCC(N2Cc3ccc(CNC(=O)OCC4CC5(C4)CC4(CCC4)C5)cc3C2=O)C(=O)N1 (stereo not drawn) [Compound 127, dispiro[3.1.36.14]decan-2-ylmethyl((2-(2,6-dioxopiperidin-3-yl)-3-oxoisoindolin-5-yl)methyl)carbamate]
Dmax (CDK2): 50 to 80% | Ki (CRBN-DDB1): ≤ 0.1 µM

O=C1CCC(N2Cc3ccc(CNC(=O)OCCCC4CCC4)cc3C2=O)C(=O)N1 (stereo not drawn) [Compound 128, 3-cyclobutylpropyl ((2-(2,6-dioxopiperidin-3-yl)-3-oxoisoindolin-5-yl)methyl)carbamate]
Dmax (CDK2): 10 to 50% | Ki (CRBN-DDB1): 0.1 to 1 µM

CC1(C)[C@H]2CC=C(CCOC(=O)NCc3ccc4c(c3)C(=O)N(C3CCC(=O)NC3=O)C4)[C@@H]1C2 (stereo partly drawn) [Compound 129, 2-((1R,5S)-6,6-dimethylbicyclo[3.1.1]hept-2-en-2-yl)ethyl ((2-(2,6-dioxopiperidin-3-yl)-3-oxoisoindolin-5-yl)methyl)carbamate]
Dmax (CDK2): 10 to 50% | Ki (CRBN-DDB1): 0.1 to 1 µM

O=C1CCC(N2Cc3ccc(CNC(=O)OC4CCC5(CC4)CC5)cc3C2=O)C(=O)N1 (stereo not drawn) [Compound 130, spiro[2.5]octan-6-yl ((2-(2,6-dioxopiperidin-3-yl)-3-oxoisoindolin-5-yl)methyl)carbamate]
Dmax (CDK2): 10 to 50% | Ki (CRBN-DDB1): 0.1 to 1 µM

CC(C)(C)C12CC(COC(=O)NCc3ccc4c(c3)C(=O)N(C3CCC(=O)NC3=O)C4)(C1)C2 (stereo not drawn) [Compound 131, (3-(tert-butyl)bicyclo[1.1.1]pentan-1-yl)methyl((2-(2,6-dioxopiperidin-3-yl)-3-oxoisoindolin-5-yl)methyl)carbamate]
Dmax (CDK2): 10 to 50% | Ki (CRBN-DDB1): 0.1 to 1 µM

O=C1CCC(N2Cc3ccc(CNC(=O)OC[C@@H]4C[C@H]4c4ccccc4)cc3C2=O)C(=O)N1 (stereo partly drawn) [Compound 132, ((1R,2R)-2-phenylcyclopropyl)methyl ((2-(2,6-dioxopiperidin-3-yl)-3-oxoisoindolin-5-yl)methyl)carbamate]
Dmax (CDK2): 10 to 50% | Ki (CRBN-DDB1): 0.1 to 1 µM

O=C1CCC(N2Cc3ccc(CNC(=O)OC4CCC5(CCC5)CC4)cc3C2=O)C(=O)N1 (stereo not drawn) [Compound 133, spiro[3.5]nonan-7-yl ((2-(2,6-dioxopiperidin-3-yl)-3-oxoisoindolin-5-yl)methyl)carbamate]
Dmax (CDK2): 10 to 50% | Ki (CRBN-DDB1): 0.1 to 1 µM

CC1(CCCCOC(=O)NCc2ccc3c(c2)C(=O)N(C2CCC(=O)NC2=O)C3)CC1 (stereo not drawn) [Compound 134, 4-(1-methylcyclopropyl)butyl ((2-(2,6-dioxopiperidin-3-yl)-3-oxoisoindolin-5-yl)methyl)carbamate]
Dmax (CDK2): 10 to 50% | Ki (CRBN-DDB1): ≤ 0.1 µM
